According to ChEMBL document CHEMBL1139687, “Inhibitory effect of carboxylic acid group on hERG binding” (Bioorg Med Chem Lett, 2006):

Biological target: Voltage-gated inwardly rectifying potassium channel KCNH2 (Homo sapiens, UniProt Q12809)
Assay: Displacement of [3H]dofetilide from human ERG potassium channel expressed in HEK293 cells

Sequence of Voltage-gated inwardly rectifying potassium channel KCNH2 (Q12809 whole entry): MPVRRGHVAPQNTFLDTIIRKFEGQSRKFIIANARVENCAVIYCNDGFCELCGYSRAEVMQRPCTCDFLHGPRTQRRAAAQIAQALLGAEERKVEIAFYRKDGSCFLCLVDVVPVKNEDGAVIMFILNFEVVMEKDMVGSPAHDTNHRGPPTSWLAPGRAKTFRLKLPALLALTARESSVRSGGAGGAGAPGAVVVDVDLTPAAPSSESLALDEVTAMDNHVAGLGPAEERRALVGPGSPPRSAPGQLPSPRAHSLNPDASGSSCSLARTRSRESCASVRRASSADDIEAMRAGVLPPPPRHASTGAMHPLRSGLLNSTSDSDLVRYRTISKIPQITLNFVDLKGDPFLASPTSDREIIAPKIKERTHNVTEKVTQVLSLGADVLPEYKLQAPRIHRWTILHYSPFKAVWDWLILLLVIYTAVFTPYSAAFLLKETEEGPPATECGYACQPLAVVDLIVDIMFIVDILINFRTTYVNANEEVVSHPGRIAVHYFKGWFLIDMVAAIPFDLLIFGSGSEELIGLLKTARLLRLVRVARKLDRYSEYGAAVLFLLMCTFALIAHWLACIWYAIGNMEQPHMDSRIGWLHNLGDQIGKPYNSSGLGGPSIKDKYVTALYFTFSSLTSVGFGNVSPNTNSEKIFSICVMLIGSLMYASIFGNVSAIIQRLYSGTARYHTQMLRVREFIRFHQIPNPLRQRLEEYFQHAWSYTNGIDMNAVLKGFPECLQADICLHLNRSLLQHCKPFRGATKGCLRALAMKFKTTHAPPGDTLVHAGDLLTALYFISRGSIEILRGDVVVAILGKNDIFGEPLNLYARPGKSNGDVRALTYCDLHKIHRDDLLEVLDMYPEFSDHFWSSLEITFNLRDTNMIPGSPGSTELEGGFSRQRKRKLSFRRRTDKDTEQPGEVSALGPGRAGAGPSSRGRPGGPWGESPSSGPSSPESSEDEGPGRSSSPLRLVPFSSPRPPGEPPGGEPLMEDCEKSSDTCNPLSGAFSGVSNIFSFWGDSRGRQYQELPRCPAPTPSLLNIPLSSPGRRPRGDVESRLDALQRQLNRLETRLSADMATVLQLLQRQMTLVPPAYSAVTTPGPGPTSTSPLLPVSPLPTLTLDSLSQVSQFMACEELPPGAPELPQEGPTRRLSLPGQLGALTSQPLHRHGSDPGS

SMILES	Ki
N=C(c1ccc(C(=O)Nc2ccc(Cl)cc2C(=O)Nc2ccc(Cl)cn2)cc1)N1CCCC(C(=O)O)C1 (configuration not stated)	> 10000 nM
COC(=O)c1ccc(Oc2ccc(NC(=O)c3ccc(C(=N)N(C)C)cc3)c(C(=O)Nc3ccc(Cl)cn3)c2)cc1	570 nM
CN(C)C(=N)c1ccc(C(=O)Nc2ccc(Sc3ccc(C(=O)N(C)C)cc3)cc2C(=O)Nc2ccc(Cl)cn2)cc1	370 nM
CN(C)C(=N)c1ccc(C(=O)Nc2ccc(Cl)cc2C(=O)Nc2ccc(Cl)cn2)c(N(C)CCCC(=O)O)c1	> 6600 nM
CCOC(=O)C1CCN(C(=N)c2ccc(C(=O)Nc3c(OC)cc(Cl)cc3C(=O)Nc3ccc(Cl)cn3)c(F)c2)CC1	51 nM
COc1cc(Cl)cc(C(=O)Nc2ccc(Cl)cn2)c1NC(=O)c1ccc(C(=N)N2CCC(C(=O)O)CC2)cc1F	> 10000 nM
CN(C)C(=N)c1ccc(C(=O)Nc2ccc(Cl)cc2C(=O)Nc2ccc(Cl)cn2)c(N2CCC(C(=O)O)CC2)c1	> 10000 nM
CN(C)C(=N)c1ccc(C(=O)Nc2ccc(Cl)cc2C(=O)Nc2ccc(Cl)cn2)cc1	100 nM
CN1CCN=C1c1ccc(C(=O)N2CCN(S(=O)(=O)c3cc4ccc(Cl)cc4s3)CC2CC(=O)N2CCOCC2)cc1 (configuration not stated)	600 nM
CN(CCCC(=O)O)C(=N)c1ccc(C(=O)Nc2ccc(Cl)cc2C(=O)Nc2ccc(Cl)cn2)cc1	1400 nM
CC(=N)N1CCC(Oc2ccc(N(Cc3ccc4ccc(C(=N)N)cc4c3)S(=O)(=O)CC(=O)O)cc2)CC1 [YM-60828]	> 10000 nM
Cc1cc(C(=O)Nc2ccc(C(=N)N3CCCC3)cc2)n(-c2cc3ccccc3cc2C(=O)O)n1	> 10000 nM
C/C(=C(\F)C(=O)N(CC(=O)O)c1ccc(-c2ccccc2S(N)(=O)=O)cc1)c1cccc(C(=N)N)c1	> 10000 nM
COC(=O)CCc1ccc(NC(=O)c2ccc(C(=N)N(C)C)cc2)c(C(=O)Nc2ccc(Cl)cn2)c1	790 nM
CN(C)C(=N)c1ccc(C(=O)Nc2ccc(Sc3ccc(C(=O)O)cc3)cc2C(=O)Nc2ccc(Cl)cn2)cc1	4600 nM
CN(C)C(=N)c1ccc(CN2C(=O)CN(S(=O)(=O)c3cc4cc(Cl)ccc4[nH]3)C[C@@H]2C(=O)O)cc1	> 10000 nM
CN1CCN=C1c1ccc(C(=O)N2CCN(S(=O)(=O)c3cc4ccc(Cl)cc4s3)CC2CC(=O)N2CCCC(C(=O)O)C2)cc1 (configuration not stated)	> 10000 nM
CN(C)C(=N)c1ccc(C(=O)Nc2ccc(Cl)cc2C(=O)Nc2ccc(Cl)cn2)c(N2CCCCC2C(=O)O)c1 (configuration not stated)	> 2000 nM
Cc1cc(C(=O)Nc2ccc(-c3ccccc3CN3CCCCC3)cc2F)n(-c2cc3ccccc3cc2F)n1	1000 nM
CN(C)C(=N)c1ccc(C(=O)Nc2ccc(Oc3ccc(C(=O)O)cc3)cc2C(=O)Nc2ccc(Cl)cn2)cc1	> 10000 nM
CCOC(=O)C1CCN(C(=N)c2ccc(C(=O)Nc3ccc(Cl)cc3C(=O)Nc3ccc(Cl)cn3)cc2)CC1	17 nM
CN(CC(=O)O)C(=N)c1ccc(C(=O)Nc2ccc(Cl)cc2C(=O)Nc2ccc(Cl)cn2)cc1	1400 nM
